Where “and” joins values, the source holds several entries; their conditions need not be identical. Identical values can stand only once. Where a SMILES comes first, the peptide text is derived from it.
How the values were obtained:
Assay in all cases: In Vitro Assay Dipeptidyl Peptidase IV. Fibroblast Activation Protein and Prolyl Oligopeptidase
[1] = target: Dipeptidyl peptidase 4 (Homo sapiens, UniProt P27487)
Experimental: (§1) The purpose of this assay is to determine the IC50 of various inhibitors against recombinant human dipeptidyl peptidase IV (DPPIV), fibroblast activation protein (FAP) or prolyl oligopeptidase (PREP). The assays are conducted in the following steps:1 Dissolve the compound in DMSO to a final concentration of […]. […] Serial dilute (1:10) the 1 mM compound stocks prepared previously into the appropriate assay buffer (FAP: 50 mM Tris, 140 mM NaCl, pH 7.5/PREP: 25 mM Tris, 0.25 M NaCl, pH 7.5/DPPIV: 25 mM Tris, pH 8.0) to one row of a 96-well plate. 3. […] 4. Dilute the enzymes into their appropriate assay buffers. The final enzyme concentrations should be 0.1, 1.2, and 0.6 nM for DPPIV, FAP and PREP respectively. Add 180 μL to each well needed in columns 2-10. Column 1 (A,B,C) should be prepared with 200 ul of appropriate assay buffer as control. Column 1 (D,E,F,G,H) should be prepared with 20 ul of appropriate assay buffer and 180 ul enzyme as no inhibitor control. 5. Add 20 μL of the compound of interest from the dilution plate prepared in step 2 to columns 2-10 of the assay plate where appropriate. Each sample should be tested in triplicate. Allow this to incubate for 10 minutes at room temperature, shaking the plate for the first two minutes. 6. Add 10 μL of 20× substrate prepared in step 3 to each well and allow this to incubate for 15 minutes at room temperature, shaking the plate for the first two minutes. 7. Read the fluorescence at λex: 380, λem: 460.

[2] = target: T1, Prolyl endopeptidase FAP (Homo sapiens, UniProt Q12884)
T1 sequence (Q12884 whole entry): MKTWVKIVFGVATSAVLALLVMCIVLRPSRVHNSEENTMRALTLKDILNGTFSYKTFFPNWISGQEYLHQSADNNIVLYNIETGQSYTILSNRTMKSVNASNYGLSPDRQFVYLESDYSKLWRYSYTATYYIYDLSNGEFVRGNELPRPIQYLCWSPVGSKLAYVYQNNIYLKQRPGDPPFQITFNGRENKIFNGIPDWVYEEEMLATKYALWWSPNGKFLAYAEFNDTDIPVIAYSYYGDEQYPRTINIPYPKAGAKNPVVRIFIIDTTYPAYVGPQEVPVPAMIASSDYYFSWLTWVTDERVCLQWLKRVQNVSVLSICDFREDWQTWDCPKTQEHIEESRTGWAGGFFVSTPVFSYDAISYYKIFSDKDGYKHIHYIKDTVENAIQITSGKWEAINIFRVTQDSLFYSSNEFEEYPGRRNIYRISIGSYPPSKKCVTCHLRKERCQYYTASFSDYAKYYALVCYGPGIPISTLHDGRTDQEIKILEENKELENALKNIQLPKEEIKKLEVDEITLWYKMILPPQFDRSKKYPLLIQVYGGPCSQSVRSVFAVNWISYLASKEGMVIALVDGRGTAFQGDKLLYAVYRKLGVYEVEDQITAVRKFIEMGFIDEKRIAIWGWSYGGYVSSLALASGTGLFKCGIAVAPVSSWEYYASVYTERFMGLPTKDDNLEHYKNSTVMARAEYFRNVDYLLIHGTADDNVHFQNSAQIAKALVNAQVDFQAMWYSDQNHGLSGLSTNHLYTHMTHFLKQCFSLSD
Experimental: as §1

[3] = target: T2, Prolyl endopeptidase (Homo sapiens, UniProt P48147)
T2 sequence (P48147 whole entry): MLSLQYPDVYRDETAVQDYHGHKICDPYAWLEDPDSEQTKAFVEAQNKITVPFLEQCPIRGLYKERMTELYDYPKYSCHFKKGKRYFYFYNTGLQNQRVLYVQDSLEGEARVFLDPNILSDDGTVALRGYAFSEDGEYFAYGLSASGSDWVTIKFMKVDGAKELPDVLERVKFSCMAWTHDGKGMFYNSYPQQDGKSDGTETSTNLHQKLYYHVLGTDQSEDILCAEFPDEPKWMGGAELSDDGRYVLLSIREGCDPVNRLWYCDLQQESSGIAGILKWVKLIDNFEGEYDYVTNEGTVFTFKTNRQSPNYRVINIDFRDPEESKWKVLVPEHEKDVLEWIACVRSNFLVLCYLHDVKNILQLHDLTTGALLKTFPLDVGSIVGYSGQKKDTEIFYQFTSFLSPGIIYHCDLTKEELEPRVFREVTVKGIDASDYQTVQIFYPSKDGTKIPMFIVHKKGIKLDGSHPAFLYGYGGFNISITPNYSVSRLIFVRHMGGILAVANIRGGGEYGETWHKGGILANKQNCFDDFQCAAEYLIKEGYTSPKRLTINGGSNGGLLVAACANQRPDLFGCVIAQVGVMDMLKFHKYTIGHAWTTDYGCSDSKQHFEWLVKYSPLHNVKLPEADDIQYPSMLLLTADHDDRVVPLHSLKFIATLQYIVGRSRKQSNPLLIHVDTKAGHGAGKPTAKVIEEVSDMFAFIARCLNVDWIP
Experimental: as §1

Chain of Dipeptidyl peptidase 4 (P27487 whole entry): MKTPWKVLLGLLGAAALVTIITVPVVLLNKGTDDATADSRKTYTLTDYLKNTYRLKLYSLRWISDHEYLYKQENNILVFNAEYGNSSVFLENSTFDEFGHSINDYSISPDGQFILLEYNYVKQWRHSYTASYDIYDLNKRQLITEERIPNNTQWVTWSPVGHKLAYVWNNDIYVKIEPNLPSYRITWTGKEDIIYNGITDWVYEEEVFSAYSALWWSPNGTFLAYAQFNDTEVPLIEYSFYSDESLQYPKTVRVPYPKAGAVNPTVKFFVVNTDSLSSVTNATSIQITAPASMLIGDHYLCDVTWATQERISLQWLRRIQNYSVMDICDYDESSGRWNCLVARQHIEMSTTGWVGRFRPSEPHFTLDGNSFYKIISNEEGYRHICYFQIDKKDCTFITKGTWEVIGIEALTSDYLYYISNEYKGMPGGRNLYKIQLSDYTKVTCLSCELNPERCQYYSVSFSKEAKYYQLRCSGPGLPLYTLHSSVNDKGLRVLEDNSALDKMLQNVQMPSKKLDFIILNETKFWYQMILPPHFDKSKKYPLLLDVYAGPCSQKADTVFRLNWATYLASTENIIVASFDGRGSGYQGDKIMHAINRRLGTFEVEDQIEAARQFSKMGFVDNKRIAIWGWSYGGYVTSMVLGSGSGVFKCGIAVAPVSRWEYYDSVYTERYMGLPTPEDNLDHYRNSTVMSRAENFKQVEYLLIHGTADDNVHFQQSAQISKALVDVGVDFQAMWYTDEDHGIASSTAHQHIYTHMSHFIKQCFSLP

Structure (SMILES): CC(C)[C@H](NC(=O)CNC(=O)CNC(=O)CN1CCN(CC(=O)O)CCN(CC(=O)O)CCN(CC(=O)O)CC1)C(=O)N[C@H](C)C(=O)N1CCC[C@H]1B(O)O [US11707539, Compound 6522] (HELM PEPTIDE1{[O=C(O)CN1CCN(CC(=O)O)CCN(CC(=O)[*:2])CCN(CC(=O)O)CC1].G.G.V.[dA].[OB(O)[C@@H]1CCCN1[*:1]]}$$$$V2.0)
- IC50 [1]: > 100000 nM
- IC50 [2]: 3.5 nM and 12 nM
- IC50 [3]: 13000 nM

Structure (SMILES): N[C@@H](CCCCNC(=O)CCCNC(=O)CN1CCN(CC(=O)O)CCN(CC(=O)O)CCN(CC(=O)O)CC1)C(=O)N1CCC[C@H]1B(O)O [US11707539, Compound 6551]
- IC50 [2]: 2.6 nM and 2 nM

Source: BindingDB's records for patent US11707539 (Tufts College, 2023)
